Tests used:
5HT2A sensor [1] = format: cell-based
5HT2A sensor [2] = format: cell-based; remark: listed apart in the source
C57BL/6J Mice = assay: Head twitch response (HTR) experiments; format: in vivo, mouse
Method: Head twitch response (HTR) experiments. All HTR experiments were performed by Transpharmation Ltd, London, UK. C57BL/6J Mice (9-10 weeks old) were obtained and housed following an IACUC approved protocol. The mice were habituated in the test cage for at least 30 min, injected intraperitoneally with compound (injection volume 5 ml/kg), returned to the empty test cage, and filmed for 20 minutes. Each video is scored for the number of head-twitches by a trained observer blinded to treatment condition.

5-HT2A [3] = target: T1, 5-HT2A (Homo sapiens, UniProt P28223); assay: Serotonin 5-HT2A in vitro cellular IPOne agonism assay; format: cell-based; parameters: host or cells: CHO-K1; conditions: CHO-K1 cells, IPOne HTRF, 60 min
Method: Serotonin 5-HT2A In Vitro Cellular IPOne Agonism Assay. The 5-HT2A IPOne HTRF assay was performed at Epics Therapeutics S.A. (Belgium, FAST-0505I) using conventional methods. Briefly, CHO-K1 cells expressing human recombinant 5-HT2A receptor grown to mid-log phase in culture media without antibiotics were detached with PBS-EDTA, centrifuged, and resuspended in medium without antibiotics buffer. 20,000 cells are distributed in a 96 well plate and incubated overnight at 37° C. with 5% CO2.
For agonist testing, the medium is removed and 20 μl of assay buffer plus 20 μl of test compound or reference agonist are added in each well. The plate is incubated for 60 min. at 37° C. with 5% CO2.
After addition of the lysis buffer containing IP1-d2 and anti-IP1 cryptate detection reagents, plates are incubated 1-hour at room temperature, and fluorescence ratios are measured according to the manufacturer specification, with the HTRF kit.

rat cortical neurons = assay: Neurite Outgrowth Assay (Procedure B); format: cell-based; parameters: key: A: Statistically significant mean increase as a percent of DMSO control at 10 μM or less; B: No statistically significant mean increase as a percent of DMSO control at 10 μM or less; conditions: primary rat neuronal cultures, 72h, vs DMSO control, 10 μM or less
Method: Neurite Outgrowth Assay (Procedure B). Pregnant Wistar rats (Janvier; France) were used for the study. They were delivered 6 days before their use. Upon arrival at Neurofit animal facility, they were housed one per cage and maintained in a room with controlled temperature (21-22° C.) and a reversed light-dark cycle (12h/12h; lights on: 17:30-05:30; lights off: 05:30-17:30) with food and water available ad libitum.
Female Wistar rats of 17 days gestation were killed by cervical dislocation and the fetuses were removed from the uterus. Their brains were placed in ice-cold medium of Leibovitz (L15, Gibco, Fisher bioblock, France). Cortices were dissected and meninges were carefully removed. The cortical neurons were dissociated by trypsinization for 30 min at 37° C. (trypsin-EDTA, Gibco) in presence of 0.1 mg/ml DNAse I (Roche, France). The reaction was stopped by addition of Dulbecco's Modified Eagle Medium (DMEM; Gibco) with 10% of fetal bovine serum (FBS; Gibco). The suspension was triturated with a 10-ml pipette and using a needle syringe 21G and centrifuged at 350×g for 10 min at room temperature. The pellet of dissociated cells was resuspended in a medium consisting of Neurobasal (Gibco) supplemented with 2% B27 supplement (Gibco), 0.5 mM L-Glutamine (Gibco), an antibiotic-antimicotic mixture. Viable cells were counted in a Neubauer cytometer using the trypan blue exclusion test (Sigma). Cells were seeded at a density of 10000 cells per well in 96-well plate (Costar) precoated with poly-L-lysine. Test compound at different concentrations were added to the cultures. Donepezil (positive control) was tested at 250 nM.
After 72h (3 days) of plating, cultures were fixed with paraformaldehyde in PBS (4%, Sigma) for 30 min at 4° C. Then, cells were successively permeabilized with 0.1% Triton X100 for 30 min, saturated with PBS containing 3% of BSA and were incubated 1 h with anti-beta III tubulin antibody (Sigma) at 1/10 000 in PBS containing 0.5% of BSA. Cells were washed three times with PBS containing 0.5% of BSA, and they were incubated 1 h with goat anti-mouse antibody coupled with AF488 (Invitrogen A11001) diluted at 1/1000 in PBS containing 0.5% of BSA. Finally, nuclei were staining with DAPI 1 mg/ml at 1/1000 in PBS containing 0.5% of BSA. After rinsing with PBS, the plate was filmed and neurite networks were examined and analyzed using High-Content Screening (Celllnsight, Thermo Scientific). The average number of neurites per neuron and the average total length of neurites per neuron were the main parameters analyzed. Analysis of data was performed using analysis of variance (ANOVA). The Fisher's Protected Least Significant Difference test was used for multiple comparisons. A p value≤0.05 was considered significant. The software used is StatView 5.0 from SAS Institut.

5-HT2A [4] = target: T1, 5-HT2A; assay: Serotonin 5-HT2A in vitro radioligand binding competition assay; parameters: purchased Epics Therapeutics S.A. (Belgium) FAST-0505B; host or cells: membrane extracts; conditions: radiotracer [3H]-DOI, membrane extracts
Method: Serotonin 5-HT2A In Vitro Radioligand Binding Competition Assay. The 5-HT2A radioligand binding competition assay was performed at Epics Therapeutics S.A. (Belgium, FAST-0505B) using conventional methods. Briefly, competition binding is performed in duplicate in the wells of a 96 well plate (Master Block, Greiner, 786201) containing binding buffer (optimized for each receptor), membrane extracts (amount of protein/well optimized for each receptor), radiotracer [^3H]-DOI (final concentration optimized for each receptor) and test compound. Nonspecific binding is determined by co-incubation with 200-fold excess of cold competitor. The samples are incubated in a final volume of 0.1 ml at a temperature and for a duration optimized for each receptor and then filtered over filter plates. Filters are washed six times with 0.5 ml of ice-cold washing buffer (optimized for each receptor) and 50 μl of Microscint 20 (Packard) are added in each well. The plates are incubated 15 min on an orbital shaker and then counted with a TopCount™ for 1 min/well.

T1 sequence (P28223 whole entry): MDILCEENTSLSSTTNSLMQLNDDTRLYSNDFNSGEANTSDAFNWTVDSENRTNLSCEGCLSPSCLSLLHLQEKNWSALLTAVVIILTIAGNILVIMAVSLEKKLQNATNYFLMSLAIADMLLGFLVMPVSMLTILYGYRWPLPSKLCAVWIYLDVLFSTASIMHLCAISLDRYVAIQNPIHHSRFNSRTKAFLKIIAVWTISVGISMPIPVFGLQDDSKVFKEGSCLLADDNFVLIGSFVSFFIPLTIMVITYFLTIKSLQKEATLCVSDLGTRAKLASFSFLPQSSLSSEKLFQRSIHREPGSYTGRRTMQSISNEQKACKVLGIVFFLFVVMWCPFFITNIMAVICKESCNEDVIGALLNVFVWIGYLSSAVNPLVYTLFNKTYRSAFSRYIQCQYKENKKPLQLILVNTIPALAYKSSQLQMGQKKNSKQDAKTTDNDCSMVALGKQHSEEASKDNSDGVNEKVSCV

CCN(CC)C(=O)[C@@H]1C=C2c3cccc4[nH]c(Br)c(c34)C[C@H]2N(C)C1 [BOL148]
competition with 5-HT in the 5HT2A sensor assay (5HT2A sensor [1]): compete with 5HT binding to 5HT2A | activation of the 5HT2A sensor assay (5HT2A sensor [2]): do not activate the 5HT2A sensor assay in agonist mode

CN(C)CCc1c[nH]c2ccccc12 [DMT, N,N-dimethyltryptamine]
activation of the 5HT2A sensor assay (5HT2A sensor [2]): activate the 5HT2A sensor assay in agonist mode

COc1cc(CC(C)N)c(OC)cc1I (stereo not drawn) [DOI]
activation of the 5HT2A sensor assay (5HT2A sensor [2]): activate the 5HT2A sensor assay in agonist mode

COc1ccc2c3c([nH]c2n1)CCN(C)CC3 [Example 1, 2-methoxy-7-methyl-5,6,7,8,9,10-hexahydropyrido[3′,2′:4,5]pyrrolo[2,3-d]azepine]
Number of head twitches (C57BL/6J Mice; intraperitoneal, 10 mg/kg, filmed for 20 minutes): A (10 head twitches or less at 10 mg/kg) | EC50 (5-HT2A [3]): 0.101 to 1 µM | Increase in Neurite Length (rat cortical neurons): A | Increase in Neurite Number (rat cortical neurons): A | IC50 (5-HT2A [4]): 1 to 10 µM

COc1ccc2[nH]cc(CCN(C)C)c2c1 [Example 5-MeO-DMT]
head-twitch response (HTR) (C57BL/6J Mice): produces a robust, dose-dependent head-twitch response | activation of the 5HT2A sensor assay (5HT2A sensor [2]): activate the 5HT2A sensor assay in agonist mode

CCN(CC)CCc1c[nH]c2cc(F)ccc12 [Example 6-F-DET]
competition with 5-HT in the 5HT2A sensor assay (5HT2A sensor [1]): compete with 5HT binding to 5HT2A | activation of the 5HT2A sensor assay (5HT2A sensor [2]): do not activate the 5HT2A sensor assay in agonist mode

COc1ccc2c(CCN(C)C)c[nH]c2c1 [Example 6-MeO-DMT]
head-twitch response (HTR) (C57BL/6J Mice): does not produce a HTR | competition with 5-HT in the 5HT2A sensor assay (5HT2A sensor [1]): compete off 5-HT | activation of the 5HT2A sensor assay (5HT2A sensor [2]): do not activate the 5HT2A sensor assay in agonist mode

Cc1ccc2c3c([nH]c2n1)CCN(C1COC1)CC3 [Example 9, 2-methyl-7-(oxetan-3-yl)-5,6,7,8,9,10-hexahydropyrido[3′,2′:4,5]pyrrolo[2,3-d]azepine]
EC50 (5-HT2A [3]): > 10 µM | Increase in Neurite Length (rat cortical neurons): B | Increase in Neurite Number (rat cortical neurons): B | IC50 (5-HT2A [4]): > 10 µM

Cc1ccc2c3c(n(C)c2n1)CCN(C1COC1)CC3 [Example 11, 2,10-dimethyl-7-(oxetan-3-yl)-5,6,7,8,9,10-hexahydropyrido[3′,2′:4,5]pyrrolo[2,3-d]azepine]
EC50 (5-HT2A [3]): > 10 µM | Increase in Neurite Length (rat cortical neurons): B | Increase in Neurite Number (rat cortical neurons): B | IC50 (5-HT2A [4]): > 10 µM

Cc1ccc2c3c(n(C)c2n1)CCN(C)CC3 [Example 12, 2,7,10-trimethyl-5,6,7,8,9,10-hexahydropyrido[3′,2′:4,5]pyrrolo[2,3-d]azepine]
EC50 (5-HT2A [3]): 0.101 to 1 µM | Increase in Neurite Length (rat cortical neurons): B | Increase in Neurite Number (rat cortical neurons): B | IC50 (5-HT2A [4]): 1 to 10 µM

O=C(c1ccc(F)cc1)C1CCN(CCn2c(=O)[nH]c3ccccc3c2=O)CC1 [Ketanserin]
competition with 5-HT in the 5HT2A sensor assay (5HT2A sensor [1]): compete with 5HT binding to 5HT2A | activation of the 5HT2A sensor assay (5HT2A sensor [2]): do not activate the 5HT2A sensor assay in agonist mode

CNC(C)Cc1ccc2c(c1)OCO2 [L-MDMA]
activation of the 5HT2A sensor assay (5HT2A sensor [2]): do not activate the 5HT2A sensor assay in agonist mode

CCN(CC)C(=O)[C@@H]1C=C2c3cccc4[nH]cc(c34)C[C@H]2N(C)C1 [LSD]
activation of the 5HT2A sensor assay (5HT2A sensor [2]): activate the 5HT2A sensor assay in agonist mode

CN[C@H](C)Cc1ccc2c(c1)OCO2 [R-MDMA]
activation of the 5HT2A sensor assay (5HT2A sensor [2]): do not activate the 5HT2A sensor assay in agonist mode
